Reference: patent US20090326196A1 (priority 2006, published 2009)
Square brackets hold non-standard residues; d marks the D form. Peptide text beside a SMILES is read from it. Leu(5,5,5,5',5',5'-F6) = N[C@@H](CC(C(F)(F)F)C(F)(F)F)C(=O)O

Legend:
trypsin = tested on: T1, trypsin; assay: in vitro; assay type: in vitro ADME, bovine; settings: bovine, isolated enzyme trypsin, pH 7.4
T1 construct: trypsin (from bovine pancreas, EC 3.4.21.4); from tissue; host or cells: bovine pancreas
Experimental: The proteolytic stability of peptides towards trypsin (from bovine pancreas, EC 3.4.21.4) was determined by an analytical RP-HPLC assay. […] The enzyme concentration (in 1 mM HCl) was determined by absorbance at 280 nm. […] The amount of enzyme was optimized so that kinetics of proteolytic reactions could be assayed by RP-HPLC (detection at 230 nm). The peptides were incubated with trypsin at 37° C. over a period of 3 h. Aliquots (10 μL) were taken at different reaction times, diluted with 0.2% TFA (440 μL) and stored at −80° C. […] The remaining full-length peptide concentration was normalized with respect to the initial concentration.
where A is the normalized concentration of peptides; k is the pseudo first order rate constant; t is the reaction time in mins; and [A]0 is the initial concentration of peptides. Each fragment cleaved from the full-length peptides was identified by ESI-MS so that cleavage patterns could be established and compared.

[1] = tested on: human red blood cells (hRBC); assay type: cell-based
Experimental: The selectivity with which the peptides are able to lyse bacterial cells compared to mammalian cells was interrogated by a hemolysis assay against human red blood cells (hRBC). […] Our results are consistent with this trend.
Fresh human red blood cells (hRBCs) were centrifuged at 3,500 rpm and washed with PBS buffer until the supernatant was clear. The hRBCs were then resuspended and diluted to a final concentration of 1% (v/v) in PBS and stored at 4° C. […] An aliquot (50 μL) of supernatant was transferred to a new 96-well plate containing 50 μL H2O in each well. The absorbance at 415 nm was measured using a plate reader. Wells containing melittin at 100-400 μg/mL served as positive controls, and wells containing only buffer and hRBCs served as negative controls. The percentage hemolysis was calculated using the equation:
where complete hemolysis is defined as the average absorbance of all wells containing 100-400 μg/[…] melittin.

remaining at 3 h, 0.25 mM (trypsin): > 78%
SMILES: CC[C@H](C)[C@H](NC(=O)CN)C(=O)NCC(=O)N[C@@H](CCCCN)C(=O)N[C@@H](Cc1ccccc1)C(=O)N[C@@H](CC(C(F)(F)F)C(F)(F)F)C(=O)N[C@@H](Cc1c[nH]cn1)C(=O)N[C@@H](C)C(=O)N[C@@H](CC(C(F)(F)F)C(F)(F)F)C(=O)N[C@@H](CCCCN)C(=O)N[C@@H](CCCCN)C(=O)N[C@@H](Cc1ccccc1)C(=O)N[C@@H](CC(C(F)(F)F)C(F)(F)F)C(=O)N[C@@H](CCCCN)C(=O)N[C@@H](C)C(=O)N[C@@H](Cc1ccccc1)C(=O)N[C@@H](CC(C(F)(F)F)C(F)(F)F)C(=O)N[C@@H](C)C(=O)N[C@@H](CCC(=O)O)C(=O)N[C@@H](CC(C(F)(F)F)C(F)(F)F)C(=O)N[C@@H](CCSC)C(=O)N[C@@H](CC(N)=O)C(=O)N[C@@H](CO)C(N)=O [Peptide M2F5] (H-GIGKF[Leu(5,5,5,5',5',5'-F6)]HA[Leu(5,5,5,5',5',5'-F6)]KKF[Leu(5,5,5,5',5',5'-F6)]KAF[Leu(5,5,5,5',5',5'-F6)]AE[Leu(5,5,5,5',5',5'-F6)]MNS-NH2)
hemolytic activity relative to parent peptide, in words [1]: significantly more hemolytic
